Laboratory results as given in publication PMC11480511 (Scientific Reports, 2024).
Converted amounts (≈) assume the structure as drawn.

Tests used:
RXF 393 = assay: NCI single-dose growth inhibition screen; format: cell-based; conditions: Homo sapiens; Renal Cancer RXF 393; single dose 10^−5 M
SR = assay: NCI single-dose growth inhibition screen; format: cell-based; conditions: Homo sapiens; Leukemia SR; single dose 10^−5 M
A549/ATCC = assay: NCI single-dose growth inhibition screen; format: cell-based; conditions: Homo sapiens; Non-Small Cell Lung Cancer A549/ATCC; single dose 10^−5 M
NCI-H322M = assay: NCI single-dose growth inhibition screen; format: cell-based; conditions: Homo sapiens; Non-Small Cell Lung Cancer NCI-H322M; single dose 10^−5 M
T-47D = assay: NCI single-dose growth inhibition screen; format: cell-based; conditions: Homo sapiens, T47D; Breast Cancer T-47D; single dose 10^−5 M
[1] = test system: P. aeruginosa ATCC 27,853; assay: Antibacterial screening, agar cup diffusion method; format: cell-based; conditions: Gram –ve strain; for MIC: Pseudomonas aeruginosa, ATCC27, read-out: Minimum inhibitory concentrations (MIC, µM) P. aeruginosa ATCC 27,853
Procedure: (§1) Anti-bacterial activity of the recently synthesized compounds 3a-k was evaluated at AUMC (Assiut University Mycological Centre), Assiut, Egypt. Assays were done against Gram-negative strains of K. pneumoniae (ATCC 100310, E. coli (ATCC 25922), Pseudomonas aeruginosa (ATCC 27853) and the Gram-positive S. aureus (ATCC 6538) strain utilizing standard agar cup diffusion method. The isolates from the four bacterial species examined were kept in TSB (Trypticase Soya Broth, Becton and Dickinson) with 10% glycerol at -70 °C and then subcultured on TSA (Trypticase Soya Agar, Becton and Dickinson) and TSB for 24 h at 37 °C former to inoculation. Bacterial isolates were then plated on sterile petri plates with 1 × 10^8 CFU/mL (0.5 McFarland turbidity) and 20 mL of Mueller Hinton Agar media (Oxoid) was then loaded. To ensure that the microorganisms were evenly dispersed, the plates were gently rotated before being left to harden on a level surface. Four equally spaced spherical-shaped wells (10 mm diameter) were painstakingly drilled using a sterilized cork bore after media solidification. All tested compounds under test underwent two-fold serial dilutions in a sequential manner. Three replications of 100 µL of each concentration were added to a well using a micropipette. Plates were then incubated for 24-hour at 37 °C. The average of the inhibition zones was then calculated. To determine the MICs, the natural logarithm of each diluted test substance’s concentration was plotted against the average area of the related inhibition zone. Following that, a regression line was created and the intercept on the ‘ln concentration” axis was determined, and the antilogarithm was calculated to indicate the MIC value[34],[63].

MDA-MB231 = assay: NCI single-dose growth inhibition screen; format: cell-based; conditions: Homo sapiens, MDA-MB-231; Breast Cancer MDA-MB231; single dose 10^−5 M
NCI-H522 = assay: NCI single-dose growth inhibition screen; format: cell-based; conditions: Homo sapiens; Non-Small Cell Lung Cancer NCI-H522; single dose 10^−5 M
[2] = test system: A498 renal cancer cell line; assay: cells; conditions: Homo sapiens; for viability at 0.4 µM / viability at 1.6 µM / viability at 25 µM / viability at 100 µM: A498; for IC50: A498, read-out: In vitro cytotoxicity (IC50) A498 cell line (µM ± SEM)
PC-3 = assay: NCI single-dose growth inhibition screen; format: cell-based; conditions: Homo sapiens; Prostate Cancer PC-3; single dose 10^−5 M
MOLT-4 = assay: NCI single-dose growth inhibition screen; format: cell-based; conditions: Homo sapiens; Leukemia MOLT-4; single dose 10^−5 M
UACC-257 = assay: NCI single-dose growth inhibition screen; format: cell-based; conditions: Homo sapiens; Melanoma UACC-257; single dose 10^−5 M
CAKI-1 = assay: NCI single-dose growth inhibition screen; format: cell-based; conditions: Homo sapiens; Renal Cancer CAKI-1; single dose 10^−5 M
E. coli ATCC 25,922 = assay: Antibacterial screening, agar cup diffusion method; format: cell-based; conditions: Escherichia coli, ATCC25, Gram –ve strain; read-out: Minimum inhibitory concentrations (MIC, µM) E. coli ATCC 25,922
Procedure: as §1

SK-MEL-5 = assay: NCI single-dose growth inhibition screen; format: cell-based, human; conditions: Homo sapiens, SK-MEL-5, Melanoma SK-MEL-5; single dose 10^−5 M
EKVX = assay: NCI single-dose growth inhibition screen; format: cell-based; conditions: Homo sapiens; Non-Small Cell Lung Cancer EKVX; single dose 10^−5 M
MDA-MB-435 = assay: NCI single-dose growth inhibition screen; format: cell-based; conditions: Homo sapiens; Melanoma MDA-MB-435; single dose 10^−5 M
OVCAR-8 = assay: NCI single-dose growth inhibition screen; format: cell-based; conditions: Homo sapiens; Ovarian Cancer OVCAR-8; single dose 10^−5 M
RPMI-8226 = assay: NCI single-dose growth inhibition screen; format: cell-based; conditions: Homo sapiens; Leukemia RPMI-8226; single dose 10^−5 M
HS 578T = assay: NCI single-dose growth inhibition screen; format: cell-based; conditions: Homo sapiens; Breast Cancer HS 578T; single dose 10^−5 M
NCI-H460 = assay: NCI single-dose growth inhibition screen; format: cell-based; conditions: Homo sapiens; Non-Small Cell Lung Cancer NCI-H460; single dose 10^−5 M
IGROV1 = assay: NCI single-dose growth inhibition screen; format: cell-based; conditions: Homo sapiens, IGROV-1; Ovarian Cancer IGROV1; single dose 10^−5 M
ACHN = assay: NCI single-dose growth inhibition screen; format: cell-based; conditions: Homo sapiens; Renal Cancer ACHN; single dose 10^−5 M
M14 = assay: NCI single-dose growth inhibition screen; format: cell-based; conditions: Homo sapiens; Melanoma M14; single dose 10^−5 M
Procedure: Following the guidelines established by the drug evaluation department of the National Cancer Institute (NCI), USA, all target compounds 3a–l were examined against 60 cancer cell lines at a single concentration of 10 µM.
The anti-cancer potential of the tested compounds was evaluated at the National cancer institute (NCI), USA, against 9 panels of 60 various cell lines derived from nine human tumours available usually at NCI library. The procedures for the screening were described in details in NCI website (dttp://www.dtp.nci.nih.gov.) and were done according to NCI protocols[60] . The anticancer screening was carried out at single dose of 10^−5 M, NCI, Bethesda, USA. The results obtained as growth inhibition (%).

DU-145 = assay: NCI single-dose growth inhibition screen; format: cell-based; conditions: Homo sapiens; Prostate Cancer DU-145; single dose 10^−5 M
human melanoma LOX IMVI = assay: cells; conditions: for IC50: read-out: In vitro cytotoxicity (IC50) LOX IMVI (µM ± SEM)
UO-31 = assay: NCI single-dose growth inhibition screen; format: cell-based, human; conditions: single dose 10^−5 M; for inhibition at 10 µM: Homo sapiens, UO-31, Renal Cancer UO-31
SF-539 = assay: NCI single-dose growth inhibition screen; format: cell-based; conditions: Homo sapiens; CNS Cancer SF-539; single dose 10^−5 M
MALME-3 M = assay: NCI single-dose growth inhibition screen; format: cell-based; conditions: Homo sapiens; Melanoma MALME-3 M; single dose 10^−5 M
SF-268 = assay: NCI single-dose growth inhibition screen; format: cell-based; conditions: Homo sapiens; CNS Cancer SF-268; single dose 10^−5 M
LOX IMVI = assay: NCI single-dose growth inhibition screen; format: cell-based, human; conditions: Melanoma LOX IMVI, single dose 10^−5 M; for inhibition at 10 µM: Homo sapiens, LOX IMVI
BT-549 = assay: NCI single-dose growth inhibition screen; format: cell-based; conditions: Homo sapiens; Breast Cancer BT-549; single dose 10^−5 M

With `O=C(O)c1cn(C2CC2)c2cc(N3CCN(C(=O)CCCN4C(=O)S/C(=C\c5ccc(F)cc5)C4=O)CC3)c(F)cc2c1=O` [3i] the inhibition at 10 µM (RXF 393) was < 0%, the inhibition at 10 µM (SR) was 3.6% and the inhibition at 10 µM (A549/ATCC) was 10.4%. The inhibition at 10 µM (NCI-H322M) was 11.5%, the inhibition at 10 µM (T-47D) was 5% and the “Minimum inhibitory concentrations (MIC, µM) P. aeruginosa ATCC 27,853” value [1] was “did not show considerable anti-bacterial activity”. The MIC [1] was > 20 µM, the inhibition at 10 µM (MDA-MB231) was 26.4% and the inhibition at 10 µM (NCI-H522) was 22.9%. For the same compound, the viability at 0.4 µM [2] was 95.7%, the viability at 1.6 µM [2] was 83.5% and the viability at 25 µM [2] was 65%. The viability at 100 µM [2] was 52.3%, the IC50 [2] was 147 ± 8.3 µM and the inhibition at 10 µM (PC-3) was < 0%. The inhibition at 10 µM (MOLT-4) was < 0%, the inhibition at 10 µM (UACC-257) was 12.3% and the inhibition at 10 µM (CAKI-1) was 4.9%. For the same compound, the MIC (E. coli ATCC 25,922) was 0.54 µM (≈ 0.336 µg/mL), the inhibition at 10 µM (SK-MEL-5) was 5.5% and the inhibition at 10 µM (EKVX) was < 0%. For the same compound, the inhibition at 10 µM (MDA-MB-435) was 1.6%, the inhibition at 10 µM (OVCAR-8) was 6.8% and the inhibition at 10 µM (RPMI-8226) was < 0%. The inhibition at 10 µM (HS 578T) was 3%, the inhibition at 10 µM (NCI-H460) was < 0% and the inhibition at 10 µM (IGROV1) was 1.3%. For the same compound, the inhibition at 10 µM (ACHN) was 4.6%, the inhibition at 10 µM (M14) was 4.6% and the inhibition at 10 µM (DU-145) was < 0%. It also gave a viability at 0.4 µM (human melanoma LOX IMVI) of 74.9%, a viability at 1.6 µM (human melanoma LOX IMVI) of 67.8% and a viability at 25 µM (human melanoma LOX IMVI) of 51.5%. The viability at 100 µM (human melanoma LOX IMVI) was 41.2%, the IC50 (human melanoma LOX IMVI) was 25.4 ± 1.43 µM and the inhibition at 10 µM (UO-31) was 21.7%. For the same compound, the inhibition at 10 µM (SF-539) was 5.8%, the inhibition at 10 µM (MALME-3 M) was 14.8% and the inhibition at 10 µM (SF-268) was 3.1%. For the same compound, the inhibition at 10 µM (LOX IMVI) was 51.3%, the “Growth Inhibition (%)” value (LOX IMVI) was 51.3% and the inhibition at 10 µM (BT-549) was 8.6%.

With `O=C(O)c1cn(C2CC2)c2cc(N3CCN(C(=O)CCCN4C(=O)CSC4=O)CC3)c(F)cc2c1=O` [3 L, 1-Cyclopropyl-7-(4-(4-(2,4-dioxothiazolidin-3-yl)butanoyl)piperazin-1-yl)-6-fluoro-4-oxo-1,4-dihydroquinoline-3-carboxylic acid] the inhibition at 10 µM (RXF 393) was 30.7%, the inhibition at 10 µM (SR) was < 0% and the inhibition at 10 µM (A549/ATCC) was 6.7%. For the same compound, the inhibition at 10 µM (NCI-H322M) was 0%, the inhibition at 10 µM (T-47D) was < 0% and the melting point was 230 °C. The MIC [1] was > 20 µM, the inhibition at 10 µM (MDA-MB231) was 10.1% and the viability at 0.4 µM [2] was 92.2%. For the same compound, the viability at 1.6 µM [2] was 80.2%, the viability at 25 µM [2] was 59.6% and the viability at 100 µM [2] was 49.1%. For the same compound, the IC50 [2] was 80.7 ± 4.55 µM, the inhibition at 10 µM (PC-3) was 2.4% and the inhibition at 10 µM (MOLT-4) was < 0%. The inhibition at 10 µM (UACC-257) was < 0%, the inhibition at 10 µM (CAKI-1) was 22.7% and the MIC (E. coli ATCC 25,922) was > 20 µM. The inhibition at 10 µM (SK-MEL-5) was < 0%, the inhibition at 10 µM (EKVX) was 23.8% and the inhibition at 10 µM (MDA-MB-435) was < 0%. For the same compound, the inhibition at 10 µM (OVCAR-8) was < 0%, the inhibition at 10 µM (RPMI-8226) was 6% and the inhibition at 10 µM (NCI-H460) was 0%. The inhibition at 10 µM (IGROV1) was 15.3%, the inhibition at 10 µM (ACHN) was 0.6% and the inhibition at 10 µM (M14) was < 0%. It also gave an inhibition at 10 µM (DU-145) of 8.3%, a viability at 0.4 µM (human melanoma LOX IMVI) of 84.8% and a viability at 1.6 µM (human melanoma LOX IMVI) of 78.9%. The viability at 25 µM (human melanoma LOX IMVI) was 59.8%, the viability at 100 µM (human melanoma LOX IMVI) was 49.1% and the IC50 (human melanoma LOX IMVI) was 109 ± 6.15 µM. For the same compound, the inhibition at 10 µM (UO-31) was 42%, the “Growth Inhibition (%)” value (UO-31; Renal Cancer UO-31) was 41.0% and the inhibition at 10 µM (SF-539) was 3.3%. For the same compound, the inhibition at 10 µM (MALME-3 M) was < 0%, the inhibition at 10 µM (SF-268) was 15.1% and the inhibition at 10 µM (LOX IMVI) was 0%. The “Growth Inhibition (%)” value (LOX IMVI) was “- (- means no detected activity)” and the inhibition at 10 µM (BT-549) was 4.8%.
